# Species: Rattus norvegicus
# Assay: DrugMatrix - Regimen: Daily Repeat
# Type: toxicity, organism-based, Sprague-Dawley
# Parameters: regimen Daily Repeat, gender Male, age 6-8 weeks
# Details: in vivo, iv, vehicle 100 % SALINE; for ABSOLUTE BASOPHIL / ABSOLUTE EOSINOPHIL / ABSOLUTE LYMPHOCYTE / ABSOLUTE MONOCYTE / ABSOLUTE SEGMENTED NEUTROPHIL / BASOPHIL / EOSINOPHIL / ERYTHROCYTE COUNT / HEMATOCRIT / HEMOGLOBIN / LEUKOCYTE COUNT / LYMPHOCYTE / MEAN CORPUSCULAR HEMOGLOBIN / MEAN CORPUSCULAR HEMOGLOBIN CONCENTRATION / MEAN CORPUSCULAR VOLUME / MONOCYTE / NEUTROPHIL / NUCLEATED RED BLOOD CELLS / PLATELET COUNT: tissue Blood; for ALANINE AMINOTRANSFERASE / ALBUMIN / ALKALINE PHOSPHATASE / ASPARTATE AMINOTRANSFERASE / BLOOD UREA NITROGEN / CARBON DIOXIDE / CHLORIDE / CHOLESTEROL / CREATINE PHOSPHOKINASE / CREATININE / GLUCOSE / LACTATE DEHYDROGENASE / LIPASE / PHOSPHORUS / POTASSIUM / SODIUM / TOTAL BILIRUBIN / TOTAL PROTEIN / URIC ACID: tissue Plasma
# [1] = 0 mg/kg, 72 h, dose level Control, time 3 day
# [2] = 0 mg/kg, 120 h, dose level Control, time 5 day
# [3] = 10 mg/kg, 72 h, dose level Low, time 3 day
compound,measurement,setting,value
O=C(O)P(=O)(O)O [FOSCARNET],ABSOLUTE BASOPHIL,[1],0 CELLS/uL
same,ABSOLUTE EOSINOPHIL,[1],247.67 CELLS/uL
same,ABSOLUTE LYMPHOCYTE,[1],13190.83 CELLS/uL
same,ABSOLUTE MONOCYTE,[1],307.67 CELLS/uL
same,ABSOLUTE SEGMENTED NEUTROPHIL,[1],1220.5 CELLS/uL
same,BASOPHIL,[1],0%
same,EOSINOPHIL,[1],1.67%
same,ERYTHROCYTE COUNT,[1],5.47 x10E6/uL
same,HEMATOCRIT,[1],33.98%
same,HEMOGLOBIN,[1],12.65 G/DL
same,LEUKOCYTE COUNT,[1],14.97 x10E3/uL
same,LYMPHOCYTE,[1],88.17%
same,MEAN CORPUSCULAR HEMOGLOBIN,[1],23.17 pg
same,MEAN CORPUSCULAR HEMOGLOBIN CONCENTRATION,[1],37.23 G/DL
same,MEAN CORPUSCULAR VOLUME,[1],62.25 fL
same,MONOCYTE,[1],2%
same,NEUTROPHIL,[1],8.17%
same,NUCLEATED RED BLOOD CELLS,[1],0 /100WBC
same,PLATELET COUNT,[1],1307.17 x10E3/uL
same,ALANINE AMINOTRANSFERASE,[1],39.67 u/L
same,ALBUMIN,[1],4.08 G/DL
same,ALKALINE PHOSPHATASE,[1],383.17 u/L
same,ASPARTATE AMINOTRANSFERASE,[1],88.83 u/L
same,BLOOD UREA NITROGEN,[1],18.5 mg/dL
same,CARBON DIOXIDE,[1],27.5 mmol/L
same,CHLORIDE,[1],103 MEQ/L
same,CHOLESTEROL,[1],67.33 mg/dL
same,CREATINE PHOSPHOKINASE,[1],414.67 u/L
same,CREATININE,[1],0.19 mg/dL
same,GLUCOSE,[1],149.33 mg/dL
same,LACTATE DEHYDROGENASE,[1],536.83 u/L
same,LIPASE,[1],8.83 u/L
same,PHOSPHORUS,[1],11.13 mg/dL
same,POTASSIUM,[1],6.23 MEQ/L
same,SODIUM,[1],144.42 MEQ/L
same,TOTAL BILIRUBIN,[1],0.18 mg/dL
same,TOTAL PROTEIN,[1],5.57 G/DL
same,URIC ACID,[1],1.23 mg/dL
same,ABSOLUTE BASOPHIL,[2],0 CELLS/uL
same,ABSOLUTE EOSINOPHIL,[2],158.83 CELLS/uL
same,ABSOLUTE LYMPHOCYTE,[2],13517.17 CELLS/uL
same,ABSOLUTE MONOCYTE,[2],352.67 CELLS/uL
same,ABSOLUTE SEGMENTED NEUTROPHIL,[2],1104.67 CELLS/uL
same,BASOPHIL,[2],0%
same,EOSINOPHIL,[2],1%
same,ERYTHROCYTE COUNT,[2],5.73 x10E6/uL
same,HEMATOCRIT,[2],36.85%
same,HEMOGLOBIN,[2],13.67 G/DL
same,LEUKOCYTE COUNT,[2],15.13 x10E3/uL
same,LYMPHOCYTE,[2],89.5%
same,MEAN CORPUSCULAR HEMOGLOBIN,[2],23.87 pg
same,MEAN CORPUSCULAR HEMOGLOBIN CONCENTRATION,[2],37.1 G/DL
same,MEAN CORPUSCULAR VOLUME,[2],64.33 fL
same,MONOCYTE,[2],2.33%
same,NEUTROPHIL,[2],7.17%
same,NUCLEATED RED BLOOD CELLS,[2],0.17 /100WBC
same,PLATELET COUNT,[2],1266 x10E3/uL
same,ALANINE AMINOTRANSFERASE,[2],49.17 u/L
same,ALBUMIN,[2],4.22 G/DL
same,ALKALINE PHOSPHATASE,[2],352.67 u/L
same,ASPARTATE AMINOTRANSFERASE,[2],95.17 u/L
same,BLOOD UREA NITROGEN,[2],18.83 mg/dL
same,CARBON DIOXIDE,[2],25.67 mmol/L
same,CHLORIDE,[2],102.67 MEQ/L
same,CHOLESTEROL,[2],66.83 mg/dL
same,CREATINE PHOSPHOKINASE,[2],550.33 u/L
same,CREATININE,[2],0.23 mg/dL
same,GLUCOSE,[2],186.17 mg/dL
same,LACTATE DEHYDROGENASE,[2],471.33 u/L
same,LIPASE,[2],8.67 u/L
same,PHOSPHORUS,[2],12.3 mg/dL
same,POTASSIUM,[2],6.35 MEQ/L
same,SODIUM,[2],143.57 MEQ/L
same,TOTAL BILIRUBIN,[2],0.18 mg/dL
same,TOTAL PROTEIN,[2],6.05 G/DL
same,URIC ACID,[2],2 mg/dL
same,ABSOLUTE BASOPHIL,[3],0 CELLS/uL
same,ABSOLUTE EOSINOPHIL,[3],119 CELLS/uL
same,ABSOLUTE LYMPHOCYTE,[3],13526 CELLS/uL
same,ABSOLUTE MONOCYTE,[3],339.33 CELLS/uL
same,ABSOLUTE SEGMENTED NEUTROPHIL,[3],1849 CELLS/uL
same,BASOPHIL,[3],0%
same,EOSINOPHIL,[3],1%
same,ERYTHROCYTE COUNT,[3],5.59 x10E6/uL
same,HEMATOCRIT,[3],35.27%
same,HEMOGLOBIN,[3],13.4 G/DL
same,LEUKOCYTE COUNT,[3],15.83 x10E3/uL
same,LYMPHOCYTE,[3],86%
same,MEAN CORPUSCULAR HEMOGLOBIN,[3],24.03 pg
same,MEAN CORPUSCULAR HEMOGLOBIN CONCENTRATION,[3],38 G/DL
same,MEAN CORPUSCULAR VOLUME,[3],63.2 fL
same,MONOCYTE,[3],2%
same,NEUTROPHIL,[3],11%
same,NUCLEATED RED BLOOD CELLS,[3],0.33 /100WBC
same,PLATELET COUNT,[3],1244.67 x10E3/uL
same,ALANINE AMINOTRANSFERASE,[3],51.33 u/L
same,ALBUMIN,[3],4.37 G/DL
same,ALKALINE PHOSPHATASE,[3],431.67 u/L
same,ASPARTATE AMINOTRANSFERASE,[3],102 u/L
same,BLOOD UREA NITROGEN,[3],16.67 mg/dL
same,CARBON DIOXIDE,[3],26.67 mmol/L
same,CHLORIDE,[3],102 MEQ/L
same,CHOLESTEROL,[3],79.67 mg/dL
same,CREATINE PHOSPHOKINASE,[3],558.33 u/L
same,CREATININE,[3],0.23 mg/dL
same,GLUCOSE,[3],150.33 mg/dL
same,LACTATE DEHYDROGENASE,[3],837 u/L
same,LIPASE,[3],9.33 u/L
same,PHOSPHORUS,[3],11.7 mg/dL
same,POTASSIUM,[3],6.65 MEQ/L
same,SODIUM,[3],144.07 MEQ/L
same,TOTAL BILIRUBIN,[3],0.23 mg/dL
same,TOTAL PROTEIN,[3],5.83 G/DL
same,URIC ACID,[3],1.27 mg/dL

# Source: ChEMBL document CHEMBL3885881, “DrugMatrix”
